Source: patent publication EP2706985B1 (Acerus Biopharma Inc., priority 2011, dated 2012)

Assay: Example 11 Period 2: multiple-dose pharmacokinetics (free and total testosterone, dihydrotestosterone, estradiol, SHBG)
Conditions: multi-dose, PK conclusions

In the case of `C[C@]12CC[C@H]3[C@@H](CCC4=CC(=O)CC[C@@]43C)[C@@H]1CC[C@@H]2O` [Testosterone, 17β-Hydroxyandrost-4-en-3-one], the “time to return to baseline” value is reported as 12 to 15 h.
